Measurements as given in ChEMBL document CHEMBL6087436, “The novel β-hairpin antimicrobial peptide D-G(RF)3 demonstrates exceptional antibacterial efficacy” (Eur J Med Chem, 2025).
Values after ≈ are worked out from the molar mass of the structure shown. Active and inactive are the calls of the source. The calls are words filed in the database; no cut-off is given here. Where a SMILES comes first, the peptide text is derived from it. Bridges are numbered along the chain shown (N, C = ends). [ ]: non-standard residue; d: D form. The star is where a group is joined. Ileψ(thiazoline)Cys = CC[C@H](C)[C@H](N)C1=N[C@H](C(=O)*)CS1; dOrn = NCCC[C@@H](N)C(=O)O

Columns and labels:
[1] = system: Staphylococcus epidermidis; assay: Antibacterial activity against Staphylococcus epidermidis ATCC 12228 assessed as inhibition of bacterial growth incubated for 18 hrs by microbroth dilution assay; format: functional
Bacillus subtilis = assay: Antibacterial activity against Bacillus subtilis ATCC 23857 assessed as inhibition of bacterial growth incubated for 18 hrs by microbroth dilution assay; format: functional
Escherichia coli = assay: Antibacterial activity against Escherichia coli ATCC 25922 assessed as inhibition of bacterial growth incubated for 18 hrs by microbroth dilution assay; format: functional
Pseudomonas aeruginosa [2] = assay: Antibacterial activity against Pseudomonas aeruginosa ATCC 27853 assessed as inhibition of bacterial growth incubated for 18 hrs by microbroth dilution assay; format: functional
Staphylococcus aureus = assay: Antibacterial activity against Staphylococcus aureus ATCC 25923 assessed as inhibition of bacterial growth incubated for 18 hrs by microbroth dilution assay; format: functional
Klebsiella pneumoniae = assay: Antibacterial activity against Klebsiella pneumoniae ATCC 700603 assessed as inhibition of bacterial growth incubated for 18 hrs by microbroth dilution assay; format: functional
Cell membrane [3] = assay: Induction of Cytoplasmic membrane depolarization in Staphylococcus aureus at 3.75 uM measured for every 10 mins by DiSC3(5) dye based fluorescence method
[4] = Retention time of the compound by RP-HPLC analysis; format: physicochemical
[5] = Hemolytic activity in Kunming mouse erythrocytes assessed as hemolysis incubated for 1 hr by multimode reader analysis; format: toxicity, cell-based; conditions: erythrocyte
Pseudomonas aeruginosa [6] = assay: Induction of drug resistance in Pseudomonas aeruginosa ATCC 27853 assessed as fold increase in MIC incubated for 24 hrs and measured under 40 passages; format: functional
Cell membrane [7] = assay: Induction of cell membrane permeability in Staphylococcus aureus assessed as bacterial dissolve at 2 times MIC by SEM analysis; format: subcellular
[8] = Hemolytic activity in Kunming mouse erythrocytes assessed as hemolytic rate at 256 uM incubated for 1 hr by multimode reader analysis relative to control; format: toxicity, cell-based, Erythrocyte; conditions: read-out: Activity

| Compound | MIC [1] [µM] | MIC (Bacillus subtilis) [µM] | MIC (Escherichia coli) [µM] | MIC (Pseudomonas aeruginosa [2]) [µM] | MIC (Staphylococcus aureus) [µM] | MIC (Klebsiella pneumoniae) [µM] | Activity (Cell membrane [3]) | Retention_time [4] [min] | MHC10 [5] [µM] | fold change (FC) (Pseudomonas aeruginosa [6]) | Activity (Cell membrane [7]) | hemolysis at 1 h, 256 µM [8] [%] |
| --- | --- | --- | --- | --- | --- | --- | --- | --- | --- | --- | --- | --- |
| CC[C@H](C)[C@H](N)C1=N[C@H](C(=O)N[C@@H](CC(C)C)C(=O)N[C@H](CCC(=O)O)C(=O)N[C@H](C(=O)N[C@H]2CCCCNC(=O)[C@H](CC(N)=O)NC(=O)[C@@H](CC(=O)O)NC(=O)[C@H](Cc3cnc[nH]3)NC(=O)[C@@H](Cc3ccccc3)NC(=O)[C@H]([C@@H](C)CC)NC(=O)[C@@H](CCCN)NC2=O)[C@@H](C)CC)CS1 [BACITRACIN] ({Ileψ(thiazoline)Cys}-L[dE]IK[dOrn]I[dF]H[dD]N; lactam 4-C) | 16 (≈ 22.8 µg/mL) | > 128 | > 128 | > 128 | 32 (≈ 45.5 µg/mL) | > 128 |  |  |  |  |  |  |
| NC[C@H]1O[C@H](O[C@H]2[C@H](O)[C@@H](O[C@H]3O[C@H](CO)[C@@H](O)[C@H](N)[C@H]3O)[C@H](N)C[C@@H]2N)[C@H](O)[C@@H](O)[C@@H]1O [KANAMYCIN] | > 128 | < 1 | 8 (≈ 3.88 µg/mL) | > 128 | < 1 | 64 (≈ 31 µg/mL) |  |  |  |  |  |  |
| CC(C)[C@@H]1NC(=O)[C@H](C)OC(=O)[C@@H](C(C)C)NC(=O)[C@@H](C(C)C)OC(=O)[C@H](C(C)C)NC(=O)[C@H](C)OC(=O)[C@@H](C(C)C)NC(=O)[C@@H](C(C)C)OC(=O)[C@H](C(C)C)NC(=O)[C@H](C)OC(=O)[C@@H](C(C)C)NC(=O)[C@@H](C(C)C)OC1=O |  |  |  |  |  |  | Active |  |  |  |  |  |
| N=C(N)NCCC[C@H](NC(=O)[C@H](Cc1ccccc1)NC(=O)[C@H](CCCNC(=N)N)NC(=O)[C@H](Cc1ccccc1)NC(=O)[C@H](CCCNC(=N)N)NC(=O)CNC(=O)[C@H]1CCCN1C(=O)[C@H](CCCNC(=N)N)NC(=O)[C@H](Cc1ccccc1)NC(=O)[C@H](CCCNC(=N)N)NC(=O)[C@H](Cc1ccccc1)NC(=O)[C@@H](N)CCCNC(=N)N)C(N)=O | 4 (≈ 6.79 µg/mL) | 4 (≈ 6.79 µg/mL) | 8 (≈ 13.6 µg/mL) | 16 (≈ 27.2 µg/mL) | 16 (≈ 27.2 µg/mL) | 16 (≈ 27.2 µg/mL) |  | 12.628 | > 256 |  |  |  |
| C[C@@H](O)[C@H]1C(=O)N2C(C(=O)O)=C(SCCNC=N)C[C@H]12 [IMIPENEM ANHYDROUS] | < 1 | < 1 | < 1 | 16 (≈ 4.79 µg/mL) | < 1 | < 1 |  |  |  |  |  |  |
| N=C(N)NCCC[C@H](NC(=O)CNC(=O)[C@H]1CCCN1C(=O)[C@H](CCCNC(=N)N)NC(=O)[C@H](Cc1ccccc1)NC(=O)[C@H](CCCNC(=N)N)NC(=O)[C@@H](N)Cc1ccccc1)C(=O)N[C@@H](Cc1ccccc1)C(=O)N[C@@H](CCCNC(=N)N)C(=O)N[C@@H](Cc1ccccc1)C(N)=O | 16 (≈ 22.2 µg/mL) | 8 (≈ 11.1 µg/mL) | 64 (≈ 88.6 µg/mL) | 4 (≈ 5.54 µg/mL) | 32 (≈ 44.3 µg/mL) | > 128 |  | 13.555 | > 256 |  |  |  |
| O=C(O)c1cn(C2CC2)c2cc(N3CCNCC3)c(F)cc2c1=O [CIPROFLOXACIN] | 8 (≈ 2.65 µg/mL) | 2 (≈ 0.663 µg/mL) | < 1 | 2 (≈ 0.663 µg/mL) | 8 (≈ 2.65 µg/mL) | 8 (≈ 2.65 µg/mL) |  |  |  | >128 | Active |  |
| NCCCC[C@H](NC(=O)[C@H](Cc1c[nH]c2ccccc12)NC(=O)[C@H](CCCCN)NC(=O)[C@H](Cc1c[nH]c2ccccc12)NC(=O)[C@H](CCCCN)NC(=O)CNC(=O)[C@H]1CCCN1C(=O)[C@H](CCCCN)NC(=O)[C@H](Cc1c[nH]c2ccccc12)NC(=O)[C@H](CCCCN)NC(=O)[C@H](Cc1c[nH]c2ccccc12)NC(=O)[C@@H](N)CCCCN)C(N)=O | 4 (≈ 6.74 µg/mL) | 2 (≈ 3.37 µg/mL) | 16 (≈ 27 µg/mL) | 32 (≈ 53.9 µg/mL) | 32 (≈ 53.9 µg/mL) | 64 (≈ 108 µg/mL) |  | 12.66 | > 256 |  |  |  |
| CO[C@H]1/C=C/O[C@@]2(C)Oc3c(C)c(O)c4c(O)c(c(/C=N/N5CCN(C)CC5)c(O)c4c3C2=O)NC(=O)/C(C)=C\C=C\[C@H](C)[C@H](O)[C@@H](C)[C@@H](O)[C@@H](C)[C@H](OC(C)=O)[C@@H]1C [RIFAMPIN] | < 1 | < 1 | 16 (≈ 13.2 µg/mL) | 32 (≈ 26.3 µg/mL) | < 1 | 64 (≈ 52.7 µg/mL) |  |  |  |  |  |  |
| NCCCC[C@H](NC(=O)CNC(=O)[C@H]1CCCN1C(=O)[C@H](CCCCN)NC(=O)[C@H](Cc1c[nH]c2ccccc12)NC(=O)[C@H](CCCCN)NC(=O)[C@H](Cc1c[nH]c2ccccc12)NC(=O)[C@H](CCCCN)NC(=O)[C@@H](N)Cc1c[nH]c2ccccc12)C(=O)N[C@@H](Cc1c[nH]c2ccccc12)C(=O)N[C@@H](CCCCN)C(=O)N[C@@H](Cc1c[nH]c2ccccc12)C(=O)N[C@@H](CCCCN)C(=O)N[C@@H](Cc1c[nH]c2ccccc12)C(N)=O (H-WKWKWK[dP]GKWKWKW-NH2) | 4 (≈ 8.23 µg/mL) | 2 (≈ 4.12 µg/mL) | 8 (≈ 16.5 µg/mL) | 4 (≈ 8.23 µg/mL) | 8 (≈ 16.5 µg/mL) | 16 (≈ 32.9 µg/mL) |  | 14.49 | > 256 |  |  |  |
| NCCCC[C@H](NC(=O)CNC(=O)[C@H]1CCCN1C(=O)[C@H](CCCCN)NC(=O)[C@H](Cc1c[nH]c2ccccc12)NC(=O)[C@H](CCCCN)NC(=O)[C@@H](N)Cc1c[nH]c2ccccc12)C(=O)N[C@@H](Cc1c[nH]c2ccccc12)C(=O)N[C@@H](CCCCN)C(=O)N[C@@H](Cc1c[nH]c2ccccc12)C(N)=O (H-WKWK[dP]GKWKW-NH2) | 8 (≈ 11.4 µg/mL) | 8 (≈ 11.4 µg/mL) | 64 (≈ 91.4 µg/mL) | 8 (≈ 11.4 µg/mL) | 64 (≈ 91.4 µg/mL) | > 128 |  | 13.817 | > 256 |  |  |  |
| CC[C@H](C)[C@H](NC(=O)[C@H](CCCNC(=N)N)NC(=O)[C@@H](NC(=O)[C@H](CCCNC(=N)N)NC(=O)CNC(=O)[C@H]1CCCN1C(=O)[C@H](CCCNC(=N)N)NC(=O)[C@@H](NC(=O)[C@H](CCCNC(=N)N)NC(=O)[C@@H](NC(=O)[C@@H](N)CCCNC(=N)N)[C@@H](C)CC)[C@@H](C)CC)[C@@H](C)CC)C(=O)N[C@@H](CCCNC(=N)N)C(N)=O | 8 (≈ 12.5 µg/mL) | 4 (≈ 6.24 µg/mL) | 16 (≈ 25 µg/mL) | 16 (≈ 25 µg/mL) | 32 (≈ 50 µg/mL) | 32 (≈ 50 µg/mL) |  | 11.367 | > 256 |  |  |  |
| CC[C@H](C)[C@H](N)C(=O)N[C@@H](CCCNC(=N)N)C(=O)N[C@H](C(=O)N[C@@H](CCCNC(=N)N)C(=O)N1CCC[C@@H]1C(=O)NCC(=O)N[C@@H](CCCNC(=N)N)C(=O)N[C@H](C(=O)N[C@@H](CCCNC(=N)N)C(=O)N[C@H](C(N)=O)[C@@H](C)CC)[C@@H](C)CC)[C@@H](C)CC | 64 (≈ 79.9 µg/mL) | 32 (≈ 40 µg/mL) | 128 (≈ 160 µg/mL) | 128 (≈ 160 µg/mL) | 128 (≈ 160 µg/mL) | > 128 |  | 12.103 | > 256 |  |  |  |
| CC[C@H](C)[C@H](N)C(=O)N[C@@H](CCCNC(=N)N)C(=O)N[C@H](C(=O)N[C@@H](CCCNC(=N)N)C(=O)N[C@H](C(=O)N[C@@H](CCCNC(=N)N)C(=O)N1CCC[C@@H]1C(=O)NCC(=O)N[C@@H](CCCNC(=N)N)C(=O)N[C@H](C(=O)N[C@@H](CCCNC(=N)N)C(=O)N[C@H](C(=O)N[C@@H](CCCNC(=N)N)C(=O)N[C@H](C(N)=O)[C@@H](C)CC)[C@@H](C)CC)[C@@H](C)CC)[C@@H](C)CC)[C@@H](C)CC | 8 (≈ 14.3 µg/mL) | 2 (≈ 3.57 µg/mL) | 16 (≈ 28.6 µg/mL) | 4 (≈ 7.15 µg/mL) | 8 (≈ 14.3 µg/mL) | 16 (≈ 28.6 µg/mL) |  | 13.442 | 512 |  |  | 4.1 |
